From article PMC5940854, “Nitrothiophene carboxamides, a novel narrow spectrum antibacterial series: Mechanism of action and Efficacy” (Scientific Reports, 2018)
≈ marks a conversion by molar mass, not a printed value.

Columns and labels:
NfsA = biological target: T1, NfsA (Escherichia coli, UniProt P17117); test: Nitroreductase activity assay, NfsA; assay type: biochemical, E. coli; settings: 20 μM compound, 40 μM NADPH, 10 nM NfsA; slope of initial velocity
T1 construct: His-tag; made in house; host or cells: E. coli BL21(DE3), pET28a (pET-nfsA)
T1 sequence (P17117 whole entry): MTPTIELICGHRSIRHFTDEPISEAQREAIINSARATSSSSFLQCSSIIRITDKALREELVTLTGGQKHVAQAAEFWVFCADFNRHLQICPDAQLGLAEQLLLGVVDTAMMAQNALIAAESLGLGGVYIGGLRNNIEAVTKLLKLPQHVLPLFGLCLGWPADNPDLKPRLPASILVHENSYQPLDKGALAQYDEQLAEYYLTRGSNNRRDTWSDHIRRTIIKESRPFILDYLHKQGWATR
Description: Enzyme reducing each of the substrates are measured by monitoring the concomitant oxidation of NADPH by NfsA and NADH by NfsB in a fluorescence based assay. The reduction in fluorescence due to the NADH oxidation (excitation 350 nm, emission 460 nm) and NADPH oxidation (excitation 340 nm, emission 485 nm) is recorded using a TECAN Infinite M200Pro spectrophotometer, in half area solid black microtiter plates. This change in fluorescence directly corelates to the reduction of the nitro-compounds in the reaction. The NfsA assays is performed by initiating the reactions with 40 μM NADPH and 10 nM NfsA in 50 mM Tris-HCl (pH 7.4), 5 mM EDTA against 20 μM substrate (5 μl of compounds/substrate dissolved in 100% DMSO) in a total reaction volume of 100 μl at 25 °C. Similarly, the NfsB assay is also performed by initiating the reactions with 40 μM NADH and 70 nM NfsB in 50 mM Tris-HCl (pH 7.4), 5 mM EDTA against 20 μM substrate in a total reaction volume of 100 μl. […] All reactions are performed in replicates of two or more and the fluorescence measurements are made at 10 second intervals for 5–10 minutes.
Low solubility of the compounds/substrates under the NfsA and NfsB assay conditions precluded determination of their Km. […] The relative fluorescence units (RFU) obtained due to NADPH (excitation 340 nm, emission 485 nm) or NADH (excitation 350 nm, emission 460 nm) oxidation of the first 90 sec reaction is used to compute the slopes using linear regression analysis on GraphPad Prism. Appropriate blank reactions are included to account for background fluorescence/quenching from each of the components such as DMSO, the compound itself and auto-oxidation of NADPH or NADH. Activity of NfsB with a known substrate such as nitrofurantoin is used as a benchmark to plot the relative activities with all the test compounds.

[1] = tested on: E. coli clinical isolates; test: MIC on panel of E. coli clinical isolates; assay type: cell-based
E. coli ∆nfsA + ∆nfsB = test: microbe, parasite or virus in culture; assay type: cell-based
Description: (§1) To assess the biological relevance of the interacting protein and establish the link between nitroreductases to the antibacterial activity of NTC compounds, single (ΔnfsA or ΔnfsB) and double knockouts (ΔnfsA & ΔnfsB) of nitroreductases were generated by phage transduction using strains from the Keio collection.
(§2) The inoculum used for all the experiments is derived from a single seed lot that is maintained as glycerol stocks at −80 °C and are sub cultured on LB plate for isolated colonies. Single colony of each strain is grown in M9 medium. All test compound stocks and dilutions are prepared in DMSO. Serial two-fold dilutions of compounds are prepared separately, with the concentrations ranging from 2 mg/mL to 0.015 mg/mL. To 150 µl (3–7 × 10^5 CFU/ml) of bacterial culture in 96 well microtitre plates, 3 μL compound from each of the dilutions is added to respective wells to obtain final concentrations ranging from 40 µg/mL to 0.3 µg/mL of the test compounds. Media control, culture control and appropriate reference drug controls are included. […] Growth is monitored by checking absorbance at 600 nm (A600). […] The samples from MIC and above concentrations are plated for MBC (Minimum Bactericidal Concentration). The samples are diluted 1:10 and plated on LB agar plates. […] The killing kinetics is determined by enumerating survivors at various time points following compound exposure. E. coli cells (~10^7 CFU/ml; A600 of 0.1) are treated with various concentrations (40 µg/mL to 0.3 µg/mL) of compounds in a 96-well microtitre plate. At various time intervals (0 to 8 h), 30 μl volumes of treated cultures are serially diluted and plated on LB agar plates. […] Data is expressed as the log10 CFU for each drug treatment.

E. coli ∆nfsA = test: microbe, parasite or virus in culture; assay type: cell-based; settings: Escherichia coli, read-out: MIC ∆nfsA
Description: as §1, §2

In the case of O=C(Nc1nc(-c2ccc(F)cc2F)cs1)c1ccc([N+](=O)[O-])s1 [compound 12, N-(4-(2,4-difluorophenyl)thiazol-2-yl)-5-nitrothiophene-2-carboxamide], the “NfsA activity (rate of compound conversion)” value (NfsA) is reported as 2.30 µM/min, the “MIC Range” value ([1]; 75 E.coli clinical isolates) is reported as 0.06 to 40 µg/mL and the MIC50 ([1]; Escherichia coli, 75 E.coli clinical isolates, 50% clinical isolates) is reported as 2.5 µg/mL (≈ 6.81 µM). The MIC90 ([1]; Escherichia coli, 75 E.coli clinical isolates, 90% clinical isolates) was 10 µg/mL (≈ 27.2 µM), the MIC ([1]; strain SEC001) was 4 µg/mL (≈ 10.9 µM) and the MIC ([1]; strain SEC002) was 4 µg/mL (≈ 10.9 µM). It also gave an MIC ([1]; strain SEC003) of 4 µg/mL (≈ 10.9 µM), an MIC ([1]; strain SEC004) of 32 µg/mL (≈ 87.1 µM) and an MIC ([1]; strain SEC005) of 4 µg/mL (≈ 10.9 µM). For the same molecule, the MIC ([1]; strain SEC006) was 4 µg/mL (≈ 10.9 µM), the MIC ([1]; strain SEC007) was 2 µg/mL (≈ 5.44 µM) and the MIC ([1]; strain SEC008) was 32 µg/mL (≈ 87.1 µM). The MIC ([1]; strain SEC011) was 2 µg/mL (≈ 5.44 µM), the MIC ([1]; strain SEC012) was 1 µg/mL (≈ 2.72 µM) and the MIC ([1]; strain SEC013) was 32 µg/mL (≈ 87.1 µM). It also gave an MIC ([1]; strain SEC014) of 2 µg/mL (≈ 5.44 µM), an MIC ([1]; strain SEC015) of 32 µg/mL (≈ 87.1 µM) and an MIC ([1]; strain SEC016) of 2 µg/mL (≈ 5.44 µM). The MIC ([1]; strain SEC017) was 0.06 µg/mL (≈ 0.163 µM), the MIC ([1]; strain SEC018) was 2 µg/mL (≈ 5.44 µM) and the MIC ([1]; strain SEC019) was 2 µg/mL (≈ 5.44 µM). It also gave an MIC ([1]; strain SEC020) of 32 µg/mL (≈ 87.1 µM), an MIC ([1]; strain SEC021) of 1 µg/mL (≈ 2.72 µM) and an MIC ([1]; strain SEC022) of 2 µg/mL (≈ 5.44 µM). For the same molecule, the MIC ([1]; strain SEC023) was 32 µg/mL (≈ 87.1 µM), the MIC ([1]; strain SEC024) was 2 µg/mL (≈ 5.44 µM) and the MIC ([1]; strain SEC025) was 2 µg/mL (≈ 5.44 µM). For the same molecule, the MIC ([1]; strain SEC026) was 2 µg/mL (≈ 5.44 µM), the MIC ([1]; strain SEC028) was 1 µg/mL (≈ 2.72 µM) and the MIC ([1]; strain SEC029) was 2 µg/mL (≈ 5.44 µM). For the same molecule, the MIC ([1]; strain SEC031) was 2 µg/mL (≈ 5.44 µM), the MIC ([1]; strain SEC032) was 4 µg/mL (≈ 10.9 µM) and the MIC ([1]; strain SEC033) was 2 µg/mL (≈ 5.44 µM). For the same molecule, the MIC ([1]; strain SEC034) was 2 µg/mL (≈ 5.44 µM), the MIC ([1]; strain SEC035) was 2 µg/mL (≈ 5.44 µM) and the MIC ([1]; strain SEC036) was 32 µg/mL (≈ 87.1 µM). For the same molecule, the MIC ([1]; strain SEC037) was 1 µg/mL (≈ 2.72 µM), the MIC ([1]; strain SEC038) was 2 µg/mL (≈ 5.44 µM) and the MIC ([1]; strain SEC039) was 2 µg/mL (≈ 5.44 µM). The MIC ([1]; strain SEC040) was 2 µg/mL (≈ 5.44 µM), the MIC ([1]; strain SEC041) was 2 µg/mL (≈ 5.44 µM) and the MIC ([1]; strain SEC042) was 4 µg/mL (≈ 10.9 µM). For the same molecule, the MIC ([1]; strain SEC043) was 2 µg/mL (≈ 5.44 µM), the MIC ([1]; strain SEC044) was 32 µg/mL (≈ 87.1 µM) and the MIC ([1]; strain SEC045) was 2 µg/mL (≈ 5.44 µM). It also gave an MIC ([1]; strain SEC046) of 2 µg/mL (≈ 5.44 µM), an MIC ([1]; strain SEC047) of 2 µg/mL (≈ 5.44 µM) and an MIC ([1]; strain SEC048) of 32 µg/mL (≈ 87.1 µM). It also gave an MIC ([1]; strain SEC049) of 32 µg/mL (≈ 87.1 µM), an MIC ([1]; strain SEC050) of 4 µg/mL (≈ 10.9 µM) and an MIC ([1]; strain SEC051) of 4 µg/mL (≈ 10.9 µM). It also gave an MIC ([1]; strain SEC052) of 1 µg/mL (≈ 2.72 µM), an MIC ([1]; strain SEC053) of 2 µg/mL (≈ 5.44 µM) and an MIC ([1]; strain SEC054) of 2 µg/mL (≈ 5.44 µM). It also gave an MIC ([1]; strain SEC055) of 2 µg/mL (≈ 5.44 µM), an MIC ([1]; strain SEC057) of 4 µg/mL (≈ 10.9 µM) and an MIC ([1]; strain SEC058) of 4 µg/mL (≈ 10.9 µM). It also gave an MIC ([1]; strain SEC059) of 2 µg/mL (≈ 5.44 µM), an MIC ([1]; strain SEC060) of 2 µg/mL (≈ 5.44 µM) and an MIC ([1]; strain SEC061) of 2 µg/mL (≈ 5.44 µM). The MIC ([1]; strain SEC062) was 1 µg/mL (≈ 2.72 µM), the MIC ([1]; strain SEC063) was 2 µg/mL (≈ 5.44 µM) and the MIC ([1]; strain SEC064) was 4 µg/mL (≈ 10.9 µM). The MIC ([1]; strain SEC065) was 2 µg/mL (≈ 5.44 µM), the MIC ([1]; strain SEC067) was 2 µg/mL (≈ 5.44 µM) and the MIC ([1]; strain SEC068) was 4 µg/mL (≈ 10.9 µM). It also gave an MIC ([1]; strain SEC069) of 4 µg/mL (≈ 10.9 µM), an MIC ([1]; strain SEC070) of 4 µg/mL (≈ 10.9 µM) and an MIC ([1]; strain SEC071) of 2 µg/mL (≈ 5.44 µM). For the same molecule, the MIC ([1]; strain SEC072) was 2 µg/mL (≈ 5.44 µM), the MIC ([1]; strain SEC073) was 4 µg/mL (≈ 10.9 µM) and the MIC ([1]; strain SEC074) was 2 µg/mL (≈ 5.44 µM). It also gave an MIC ([1]; strain SEC075) of 4 µg/mL (≈ 10.9 µM), an MIC ([1]; strain SEC076) of 2 µg/mL (≈ 5.44 µM) and an MIC ([1]; strain SEC077) of 2 µg/mL (≈ 5.44 µM). It also gave an MIC ([1]; strain SEC078) of 8 µg/mL (≈ 21.8 µM), an MIC ([1]; strain SEC079) of 4 µg/mL (≈ 10.9 µM) and an MIC ([1]; strain SEC080) of 4 µg/mL (≈ 10.9 µM). For the same molecule, the MIC (E. coli ∆nfsA + ∆nfsB; Escherichia coli, read-out: MIC ∆nfsA + ∆nfsB) was > 40 µg/mL, the “antibacterial activity in double knockout (in words)” value (E. coli ∆nfsA + ∆nfsB; ΔnfsA and ΔnfsB double knockout strain) was “completely inactive” and the MIC (E. coli ∆nfsA) was 0.6 µg/mL (≈ 1.63 µM).
